# Assay results reported in patent publication US20230149338A1, “DIAGNOSIS AND TREATMENT OF ADDICTION” (The Regents of the University of California, priority 2020, published 2023).
# “Also recorded” adds a separate entry of the source.
# What was measured:
# Format in all cases: in vivo, rat
# Sprague-Dawley rats [1] = experiment: Mechanical nociceptive von Frey test, passive oxycodone injection model
# Description: (§1) The rats were subjected to microbiome depletion using a cocktail of non-absorbable antibiotics in their drinking water. Control rats were given regular drinking water. […] Withdrawal was precipitated at the end of the injection paradigm with a subcutaneous injection of naloxone (1 mg/kg) in the saline (SAL) group, withdrawal (WD) group, and antibiotic-treated withdrawal (WD+ABX) group. For the intoxication state, the rats were given a saline injection at the same time as the naloxone group. The OXY group included animals that were not treated with antibiotics in the intoxicated state, and the OXY+ABX group included animals that were treated with antibiotics in the intoxicated state. […] The rats were sacrificed and perfused 90 min after the naloxone injection in the WD, WD+ABX, and SAL groups and after 90 min following the saline injection (matched with the naloxone injection time point) in the OXY and OXY+ABX groups. Brains were then cryopreserved and stained for Fos expression.
# Mechanical nociception, reflected by hindpaw withdrawal thresholds, was determined by an observer who was blind to the experimental groups using von Frey filaments that ranged from 3.63 to 281.838 g as previously reported (Dixon 1965, Kononoff et al. 2018). A test session began after 10 min of habituation to the testing environment immediately following the subcutaneous injection of naloxone (WD, WD+ABX, and SAL groups) or saline (OXY and OXY+ABX groups). […] The 50% paw withdrawal threshold was determined by the formula Xf+kδ, where Xf is the last von Frey filament applied, k is the Dixon value that corresponded to the response pattern, and […] is the mean difference between stimuli. Once the threshold was determined for the left hindpaw, the same testing procedure was repeated for the right hindpaw after 5 min. Paw withdrawal thresholds were recorded at baseline, during intoxication, and during precipitated withdrawal.
# Sprague-Dawley rats [2] = experiment: Withdrawal score after naloxone-precipitated withdrawal
# Description: as §1
# To precipitate withdrawal, the rats were subcutaneously injected with naloxone and then placed in a Plexiglas observation chamber.
# Withdrawal symptoms were categorized using a scale that was modified from (Gellert et al. 1978) and (Cicero et al. 2002). Graded signs of withdrawal were scored as the following: wet dog shakes (1 or 2 shakes=2; 3 or 4 shakes=3; […] shakes=4) and escape attempts (2-4 attempts=1; 5-9 attempts=2; ≥10 attempts=3). The following behaviors were measured per instance: abnormal posture/writhing, teeth chattering, ptosis (drooping eyelids), diarrhea, profuse salivation, urination, swallowing movements, and chromodacyorrhea (red tears). The total withdrawal score was calculated as the sum of all of the individual withdrawal scores. Immediately after withdrawal testing, all of the rats were returned to standard cages and given unrestricted access to food and water.
# microbiome = experiment: 16S RNA sequencing of feces: alpha diversity and phyla; details: post-treatment
# Description: (§2) At each time point, approximately two fecal pellets were harvested and put directly into a cryovial, which was placed on powered dry ice. The pellets were then stored at −80° C. until processing for sequencing. At the time of DNA extraction, feces were thawed and extracted with the Qiagen DNeasy powersoil kit. The samples are then amplified by PCR in triplicate and then pooled. The 16S V4 gene was amplified using universal primers ([…]). Each sample was normalized to 240 ng per sample and purified. After purification, the A260/A280 ratio of the final pool was recorded to ensure purity, with a tolerance range of 1.8-2.0. The barcoded amplicons from all of the samples were normalized, pooled to construct the sequencing library, and sequenced using an Illumina MiSeq sequencer. The sequencing primers were the following: […]
# (§3) After sequencing, the raw files were prepared, filtered for quality, and demultiplexed. Operational taxonomic units (OTUs) were selected using open-reference OUT picking based on 97% sequence similarity to the Greengenes database. Taxonomy assignment and rarefaction were performed using Qiita with 15,000 reads per sample (Gonzalez et al. 2018). The alpha diversity was measured using both the Shannon diversity index and Chao1 index and compared between baseline and treatment conditions. […]
# Bacteroidetes = experiment: 16S RNA sequencing of feces: Bacteroidetes abundance
# Description: as §2, §3
# Firmicutes = experiment: 16S RNA sequencing of feces: Firmicutes abundance
# Description: as §2, §3
# Fos+ neurons = experiment: Fos immunohistochemistry, quantification of Fos+ neuronal ensembles
# Description: Two hours later, the rats were injected with either saline (OXY and OXY+ABX groups) or 1 mg/kg naloxone (WD, WD+ABX, and SAL groups) to maintain intoxication or precipitate withdrawal, respectively. Brains were collected 90 min after the injection of naloxone or saline to produce both intoxicated and withdrawal groups. The rats were deeply anesthetized and perfused with 100 mL of phosphate-buffered saline (PBS) followed by 100 mL of 4% paraformaldehyde (PFA). Brains were postfixed in 4% PFA overnight and transferred to 30% sucrose in a PBS/0.1% azide solution at 4° C. for 2 days. Brains were frozen in powdered dry ice for 15-30 s and then sectioned coronally at 40 μm thickness throughout the brain using a cryostat. Representative sections were quantified from the following regions at the following coordinates according to the (Paxinos 2007) rat brain atlas: PVT (bregma −3.36), LHb (bregma −3.36), BLA (bregma −3.12), CeA (bregma −3.12), PAG (bregma −5.76), anterior agranular insula bregma (+3.00), BNST (bregma 0.00), and LC (bregma −9.16).
# The sections were washed in PBS for 10 min three times and then incubated in 1% H2O2/PBS for 20 min to quench endogenous peroxidase activity. The sections were then rinsed for 10 min three times in PBS and incubated in blocking solution (PBS+0.3% TritonX-100, 1 mg/mL bovine serum albumin, and 5% normal donkey serum) for 1 h. The sections were then incubated for 24 h at room temperature with rabbit monoclonal anti-Fos antibody (Cell Signaling Technologies, catalog no. 2250, RRID: AB_2247211) diluted 1:1000 in PBS/0.5% Tween-20 and 5% normal donkey serum. Following incubation with the primary antibody, the sections were washed for 10 min three times in PBS and incubated for 2 h in undiluted rabbit ImmPress horseradish peroxidase reagent (Vector Laboratories, catalog no. MP-7451, RRID: 2631198).
# The sections were then washed in PBS for 10 min three times and then developed for 6 min in Vector peroxidase 3,3′-diaminobenzidine (DAB) substrate (Vector Laboratories, catalog no. SK-4100, RRID: 2336382) enhanced with nickel chloride. Following rinses in PBS for 10 min three times, the sections were mounted on Fisher Super Frost Plus slides, air dried, and coverslipped with PVA-DABCO (Sigma Aldrich, catalog no. 10981). Following coverslipping, images were acquired using a Keyence BZX700 fluorescent microscope and analyzed using Fiji software.
# Quantitative analysis to obtain unbiased estimates of the total number of Fos+positive cell bodies was performed using Fiji software with the Analyze Particles module (Schindelin et al. 2012). Slides were imaged on a Keyence BZX700 slide scanner and stitched at 2[…] magnification. Three sections were bilaterally analyzed for each rat and then averaged per animal (counted as n=1). A total of 4-6 animals of each sex per group were analyzed. Cell numbers were normalized to the area of the region of interest.
# [3] = oxycodone + naloxone withdrawal vs SAL and OXY groups
# [4] = oxycodone + naloxone withdrawal vs SAL group
# [5] = withdrawal compared with the control group
smiles,measurement,setting,value
"COc1ccc2c3c1O[C@H]1C(=O)CC[C@@]4(O)[C@@H](C2)N(C)CC[C@]314 [oxycodone, Oxycodone]",decrease in pain thresholds,"Sprague-Dawley rats [1]; WD and WD+ABX groups, naloxone-precipitated withdrawal",64%
same,von Frey pain threshold during oxycodone intoxication,"Sprague-Dawley rats [1]; oxycodone 2 mg/kg s.c. every 12 h, intoxicated animals vs saline, withdrawal groups and baseline",significantly higher von Frey scores; also recorded: higher pain thresholds
same,von Frey pain threshold during withdrawal,"Sprague-Dawley rats [1]; oxycodone-dependent rats, naloxone 1 mg/kg precipitated withdrawal, vs saline, intoxication, baseline",significantly lower von Frey scores; also recorded: lower pain thresholds
same,increase in withdrawal signs,Sprague-Dawley rats [2]; WD and WD+ABX groups,1420%
same,"withdrawal score, intoxicated vs saline animals",Sprague-Dawley rats [2]; oxycodone intoxication,No significant difference in withdrawal scores
same,total withdrawal score during withdrawal,"Sprague-Dawley rats [2]; oxycodone-dependent rats, naloxone-precipitated withdrawal, vs saline and intoxicated animals",significantly higher withdrawal scores
same,"alpha diversity, Chao1 test, OXY vs SAL group",microbiome,no difference in alpha diversity
same,change in Bacteroidetes after treatment,Bacteroidetes; OXY group or OXY+ABX group compared with the matched SAL group,−19.01%
same,"Bacteroidetes at the phylum level, group comparison","Bacteroidetes; post-treatment, OXY+ABX vs water and OXY groups, OXY vs SAL",No difference in Bacteroidetes
same,change in Firmicutes after treatment,Firmicutes; OXY group or OXY+ABX group compared with the matched saline group,38.5%
same,"Firmicutes at the phylum level, group comparison","Firmicutes; post-treatment, OXY+ABX vs SAL and OXY groups, OXY vs SAL",No difference in Firmicutes
same,"number of Fos+ neurons, BLA, WD group",Fos+ neurons; oxycodone + naloxone withdrawal vs OXY and SAL groups,significant decrease in Fos+ neurons compared with the OXY group but no difference from the SAL group
same,"number of Fos+ neurons, BNST, WD group",Fos+ neurons; [3],significant increase in the number of Fos+ neurons; also recorded: significant decrease in the number of Fos+neurons compared with the WD and WD+ABX groups
same,"number of Fos+ neurons, LHb, WD group",Fos+ neurons; [3],significant increase in the number of Fos+neurons
same,"number of Fos+ neurons, PAG, WD group",Fos+ neurons; [3],significant increase in Fos+ neurons
same,"number of Fos+ neurons, PVT, WD group",Fos+ neurons; [3],significant increase in Fos+ positive neurons; also recorded: significant decrease in the number of Fos+ neurons in the SAL group compared with the WD and WD+ABX groups
same,"number of Fos+ neurons, anterior insula, WD group",Fos+ neurons; [3],significant increase in the number of Fos+ neurons
same,"number of Fos+ neurons, CeA, WD group",Fos+ neurons; [4],significant difference between the SAL and WD groups
same,"number of Fos+ neurons, LC, WD group",Fos+ neurons; [4],significant difference between the SAL group and the WD and WD+ABX groups
same,"increase in the number of Fos+ neurons, LC",Fos+ neurons; [5],475%
same,"increase in the number of Fos+ neurons, LHb",Fos+ neurons; [5],712%
same,"increase in the number of Fos+ neurons, PVT",Fos+ neurons; [5],289%
same,"increase in the number of Fos+ neurons, lateral BNST","Fos+ neurons; withdrawal, antibiotic-treated animals compared with the control group",1272%
